In the kinase profiling compilation of Christmann-Franck et al. (2016):

Columns and labels:
Experiment in all cases: radiometric filter-binding kinase assay, Kinase HotSpot
Settings in all cases: compound 0.5 µM; ATP 10 µM
FGR (human) = FGR (human) (UniProt P09769)
DYRK1A (human) = DYRK1A (human) (UniProt Q13627)
EPHB2 (human) = EPHB2 (human) (UniProt P29323)
DMPK (human) = DMPK (human) (UniProt Q09013)
RAF1 (human) = RAF1 (human) (UniProt P04049)
SRC (human) = SRC (human) (UniProt P12931)
SGK3 (human) = SGK3 (human) (UniProt Q96BR1)
AKT3 (human) = AKT3 (human) (UniProt Q9Y243)
CAMKK1 (human) = CAMKK1 (human) (UniProt Q8N5S9)
AURKB (human) = AURKB (human) (UniProt Q96GD4)
INSRR (human) = INSRR (human) (UniProt P14616)
MAPK11 (human) = MAPK11 (human) (UniProt Q15759)
STK4 (human) = STK4 (human) (UniProt Q13043)
MET (human) = MET (human) (UniProt P08581)
PRKG2 (human) = PRKG2 (human) (UniProt Q13237)
MAP3K2 (human) = MAP3K2 (human) (UniProt Q9Y2U5)
CDC42BPB (human) = CDC42BPB (human) (UniProt Q9Y5S2)
YES1 (human) = YES1 (human) (UniProt P07947)
MLTK (human) = MLTK (human) (UniProt Q9NYL2)
CDK5 CDK5R1 p25 (human) = CDK5 CDK5R1 p25 (human) (UniProt Q00535+Q15078)
PTK2 (human) = PTK2 (human) (UniProt Q05397)
HIPK2 (human) = HIPK2 (human) (UniProt Q9H2X6)
MAP2K2 (human) = MAP2K2 (human) (UniProt P36507)
MYLK2 (human) = MYLK2 (human) (UniProt Q9H1R3)
CSNK1A1 (human) = CSNK1A1 (human) (UniProt P48729)
AURKA (human) = AURKA (human) (UniProt O14965)
FES (human) = FES (human) (UniProt P07332)
OXSR1 (human) = OXSR1 (human) (UniProt O95747)
DAPK1 (human) = DAPK1 (human) (UniProt P53355)
TGFBR1 (human) = TGFBR1 (human) (UniProt P36897)
MAP3K11 (human) = MAP3K11 (human) (UniProt Q16584)
PRKCD (human) = PRKCD (human) (UniProt Q05655)
RPS6KA2 KD1 KD2 (human) = RPS6KA2 KD1 KD2 (human) (UniProt Q15349)
CSNK1E (human) = CSNK1E (human) (UniProt P49674)
PIM2 (human) = PIM2 (human) (UniProt Q9P1W9)
FLT1 (human) = FLT1 (human) (UniProt P17948)
GSK3A (human) = GSK3A (human) (UniProt P49840)
PDGFRB (human) = PDGFRB (human) (UniProt P09619)
[1] = molecular target: JAK1 JH1 catalytic (human) (UniProt P23458)
JAK2 JH1 JH2 (human) = JAK2 JH1 JH2 (human) (UniProt O60674)
CSNK1D (human) = CSNK1D (human) (UniProt P48730)

Sequence of OXSR1 (human) (O95747 whole entry, looked up): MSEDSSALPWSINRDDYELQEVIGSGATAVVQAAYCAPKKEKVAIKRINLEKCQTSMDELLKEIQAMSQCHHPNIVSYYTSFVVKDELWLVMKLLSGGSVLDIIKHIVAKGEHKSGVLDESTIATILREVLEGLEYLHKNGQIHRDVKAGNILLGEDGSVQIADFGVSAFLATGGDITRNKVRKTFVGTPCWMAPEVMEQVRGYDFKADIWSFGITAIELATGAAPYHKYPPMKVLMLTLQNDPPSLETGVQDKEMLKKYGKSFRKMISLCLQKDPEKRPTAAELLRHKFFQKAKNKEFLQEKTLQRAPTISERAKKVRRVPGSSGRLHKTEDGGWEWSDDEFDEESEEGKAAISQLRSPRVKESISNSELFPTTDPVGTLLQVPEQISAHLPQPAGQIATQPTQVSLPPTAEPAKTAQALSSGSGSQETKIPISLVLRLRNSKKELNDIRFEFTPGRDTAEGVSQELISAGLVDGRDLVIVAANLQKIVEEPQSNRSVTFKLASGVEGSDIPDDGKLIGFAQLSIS
Sequence of AKT3 (human) (Q9Y243 whole entry, looked up): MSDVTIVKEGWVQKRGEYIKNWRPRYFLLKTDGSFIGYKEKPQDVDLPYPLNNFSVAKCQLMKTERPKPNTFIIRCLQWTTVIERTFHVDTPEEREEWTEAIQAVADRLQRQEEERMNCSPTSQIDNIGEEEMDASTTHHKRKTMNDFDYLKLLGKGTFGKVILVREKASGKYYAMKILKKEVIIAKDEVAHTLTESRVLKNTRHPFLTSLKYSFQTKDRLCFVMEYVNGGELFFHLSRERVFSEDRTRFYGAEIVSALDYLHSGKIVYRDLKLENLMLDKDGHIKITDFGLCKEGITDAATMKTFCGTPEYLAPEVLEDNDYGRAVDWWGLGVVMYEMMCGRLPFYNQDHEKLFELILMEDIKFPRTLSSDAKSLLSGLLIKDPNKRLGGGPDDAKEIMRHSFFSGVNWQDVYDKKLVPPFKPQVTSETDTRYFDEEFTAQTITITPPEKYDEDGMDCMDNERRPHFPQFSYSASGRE
Sequence of MAPK11 (human) (Q15759 whole entry, looked up): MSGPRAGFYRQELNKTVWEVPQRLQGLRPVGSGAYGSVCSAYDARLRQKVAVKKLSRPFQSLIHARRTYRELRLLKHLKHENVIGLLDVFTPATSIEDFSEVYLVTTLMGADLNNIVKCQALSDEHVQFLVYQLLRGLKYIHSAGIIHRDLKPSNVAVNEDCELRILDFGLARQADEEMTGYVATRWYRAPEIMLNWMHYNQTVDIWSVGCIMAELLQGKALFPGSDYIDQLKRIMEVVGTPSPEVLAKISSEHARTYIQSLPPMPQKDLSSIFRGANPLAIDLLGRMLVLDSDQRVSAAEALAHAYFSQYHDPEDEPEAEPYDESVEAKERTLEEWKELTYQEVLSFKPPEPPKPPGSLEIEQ
Sequence of PRKCD (human) (Q05655 whole entry, looked up): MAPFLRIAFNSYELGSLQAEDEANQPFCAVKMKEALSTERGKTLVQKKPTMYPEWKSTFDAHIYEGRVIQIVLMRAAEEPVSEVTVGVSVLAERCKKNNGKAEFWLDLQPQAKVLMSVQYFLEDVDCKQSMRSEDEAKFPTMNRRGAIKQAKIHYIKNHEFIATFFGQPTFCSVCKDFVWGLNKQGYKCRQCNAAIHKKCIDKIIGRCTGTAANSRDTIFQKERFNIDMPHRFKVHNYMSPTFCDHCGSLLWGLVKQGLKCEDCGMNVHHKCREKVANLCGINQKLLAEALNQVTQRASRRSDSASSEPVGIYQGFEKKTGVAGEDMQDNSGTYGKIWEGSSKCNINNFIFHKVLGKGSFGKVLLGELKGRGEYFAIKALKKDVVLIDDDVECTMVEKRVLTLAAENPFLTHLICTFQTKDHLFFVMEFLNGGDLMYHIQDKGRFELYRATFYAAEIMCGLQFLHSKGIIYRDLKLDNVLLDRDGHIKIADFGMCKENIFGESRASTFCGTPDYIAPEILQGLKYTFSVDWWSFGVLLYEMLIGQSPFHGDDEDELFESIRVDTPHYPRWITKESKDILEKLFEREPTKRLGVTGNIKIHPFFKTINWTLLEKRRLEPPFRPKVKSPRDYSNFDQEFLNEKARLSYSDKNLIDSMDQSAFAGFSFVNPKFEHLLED
Sequence of RPS6KA2 KD1 KD2 (human) (Q15349 whole entry, looked up): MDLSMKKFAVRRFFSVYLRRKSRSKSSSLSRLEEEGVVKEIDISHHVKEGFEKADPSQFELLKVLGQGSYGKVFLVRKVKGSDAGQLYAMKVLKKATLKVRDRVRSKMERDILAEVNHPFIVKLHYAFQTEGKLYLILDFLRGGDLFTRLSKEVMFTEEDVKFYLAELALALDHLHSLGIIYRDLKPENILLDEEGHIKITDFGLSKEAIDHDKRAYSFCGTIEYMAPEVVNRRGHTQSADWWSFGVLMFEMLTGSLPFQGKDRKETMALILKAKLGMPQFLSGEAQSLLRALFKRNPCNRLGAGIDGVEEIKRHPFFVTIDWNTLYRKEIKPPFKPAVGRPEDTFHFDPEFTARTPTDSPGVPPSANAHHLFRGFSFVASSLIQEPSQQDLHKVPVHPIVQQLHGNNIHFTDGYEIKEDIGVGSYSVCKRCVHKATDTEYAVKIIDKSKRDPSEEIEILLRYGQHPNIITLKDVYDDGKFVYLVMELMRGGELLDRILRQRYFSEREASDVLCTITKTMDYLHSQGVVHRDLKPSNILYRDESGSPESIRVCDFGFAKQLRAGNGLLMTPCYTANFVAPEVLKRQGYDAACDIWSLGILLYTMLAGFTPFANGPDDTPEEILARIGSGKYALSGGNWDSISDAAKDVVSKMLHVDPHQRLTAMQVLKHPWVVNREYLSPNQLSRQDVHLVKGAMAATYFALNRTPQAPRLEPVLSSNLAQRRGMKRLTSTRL
Sequence of INSRR (human) (P14616 whole entry, looked up): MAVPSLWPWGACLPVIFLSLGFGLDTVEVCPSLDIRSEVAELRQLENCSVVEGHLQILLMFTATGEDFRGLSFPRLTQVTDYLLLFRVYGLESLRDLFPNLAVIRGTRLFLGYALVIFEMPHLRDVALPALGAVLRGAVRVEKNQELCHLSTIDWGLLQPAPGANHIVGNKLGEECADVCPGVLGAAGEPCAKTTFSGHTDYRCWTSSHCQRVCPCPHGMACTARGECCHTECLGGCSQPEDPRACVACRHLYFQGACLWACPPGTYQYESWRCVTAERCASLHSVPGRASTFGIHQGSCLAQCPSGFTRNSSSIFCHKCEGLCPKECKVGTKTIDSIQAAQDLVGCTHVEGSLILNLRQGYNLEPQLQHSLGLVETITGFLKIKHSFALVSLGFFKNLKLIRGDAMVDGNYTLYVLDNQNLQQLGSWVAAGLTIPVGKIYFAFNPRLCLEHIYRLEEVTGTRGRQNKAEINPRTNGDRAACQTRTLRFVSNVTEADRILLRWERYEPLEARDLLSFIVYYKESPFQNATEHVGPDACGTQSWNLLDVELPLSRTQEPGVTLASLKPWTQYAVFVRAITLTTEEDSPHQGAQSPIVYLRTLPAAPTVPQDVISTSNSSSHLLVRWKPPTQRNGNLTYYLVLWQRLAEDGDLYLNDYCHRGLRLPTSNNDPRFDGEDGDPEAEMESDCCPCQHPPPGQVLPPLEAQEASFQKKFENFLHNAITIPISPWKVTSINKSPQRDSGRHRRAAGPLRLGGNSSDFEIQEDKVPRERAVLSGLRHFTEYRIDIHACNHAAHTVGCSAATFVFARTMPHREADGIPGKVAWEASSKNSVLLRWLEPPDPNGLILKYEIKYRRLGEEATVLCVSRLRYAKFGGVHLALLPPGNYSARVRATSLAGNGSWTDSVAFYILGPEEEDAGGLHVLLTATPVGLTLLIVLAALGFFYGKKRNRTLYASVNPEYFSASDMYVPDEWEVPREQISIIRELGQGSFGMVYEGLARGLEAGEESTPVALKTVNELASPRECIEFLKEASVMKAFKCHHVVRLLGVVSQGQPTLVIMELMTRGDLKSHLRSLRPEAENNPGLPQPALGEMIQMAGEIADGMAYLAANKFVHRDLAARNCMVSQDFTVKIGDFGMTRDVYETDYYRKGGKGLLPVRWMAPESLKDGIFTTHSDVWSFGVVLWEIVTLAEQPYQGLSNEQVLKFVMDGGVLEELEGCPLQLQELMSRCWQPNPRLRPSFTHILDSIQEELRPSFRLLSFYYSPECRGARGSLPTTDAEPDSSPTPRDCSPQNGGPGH
Sequence of AURKA (human) (O14965 whole entry, looked up): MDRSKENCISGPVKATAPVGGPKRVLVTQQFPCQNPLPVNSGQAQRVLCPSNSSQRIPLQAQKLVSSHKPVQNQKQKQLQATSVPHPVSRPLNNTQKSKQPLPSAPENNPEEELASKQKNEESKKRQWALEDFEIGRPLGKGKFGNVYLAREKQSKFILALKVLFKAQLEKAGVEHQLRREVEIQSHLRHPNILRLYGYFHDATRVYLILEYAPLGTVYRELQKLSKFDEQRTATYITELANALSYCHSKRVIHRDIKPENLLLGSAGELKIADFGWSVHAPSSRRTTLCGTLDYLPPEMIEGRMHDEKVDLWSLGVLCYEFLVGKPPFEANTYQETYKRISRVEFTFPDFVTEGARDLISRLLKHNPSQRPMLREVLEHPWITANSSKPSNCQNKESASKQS
Sequence of YES1 (human) (P07947 whole entry, looked up): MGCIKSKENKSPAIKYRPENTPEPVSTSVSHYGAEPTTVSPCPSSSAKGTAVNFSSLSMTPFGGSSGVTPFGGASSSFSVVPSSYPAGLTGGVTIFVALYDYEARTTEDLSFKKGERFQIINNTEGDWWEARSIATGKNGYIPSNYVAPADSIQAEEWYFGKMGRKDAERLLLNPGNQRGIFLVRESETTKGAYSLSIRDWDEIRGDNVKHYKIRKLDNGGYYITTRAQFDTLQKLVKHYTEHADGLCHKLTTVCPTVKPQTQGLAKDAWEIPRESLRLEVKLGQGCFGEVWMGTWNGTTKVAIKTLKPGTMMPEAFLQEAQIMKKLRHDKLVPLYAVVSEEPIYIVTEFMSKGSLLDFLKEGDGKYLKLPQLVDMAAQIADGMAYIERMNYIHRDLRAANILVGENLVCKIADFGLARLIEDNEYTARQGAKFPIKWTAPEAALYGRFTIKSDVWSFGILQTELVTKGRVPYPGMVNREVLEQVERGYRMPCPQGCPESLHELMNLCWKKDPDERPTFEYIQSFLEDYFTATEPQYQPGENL

Structure (SMILES) | residual activity (FGR (human)) [%] | residual activity (DMPK (human)) [%] | residual activity (RAF1 (human)) [%] | residual activity (SRC (human)) [%] | residual activity (SGK3 (human)) [%] | residual activity (AKT3 (human)) [%] | residual activity (CAMKK1 (human)) [%] | residual activity (AURKB (human)) [%] | residual activity (INSRR (human)) [%] | residual activity (MAPK11 (human)) [%] | residual activity (STK4 (human)) [%] | residual activity (MET (human)) [%] | residual activity (MAP3K2 (human)) [%] | residual activity (CDC42BPB (human)) [%] | residual activity (YES1 (human)) [%] | residual activity (MLTK (human)) [%] | residual activity (CDK5 CDK5R1 p25 (human)) [%] | residual activity (PTK2 (human)) [%] | residual activity (HIPK2 (human)) [%] | residual activity (CSNK1A1 (human)) [%] | other results
C[C@@H]1CCN(C(=O)CC#N)C[C@@H]1N(C)c1ncnc2[nH]ccc12 | 91.1 | 108 | 95.5 | 99.8 | 98.1 | 85.8 | 101 | 99.2 | 97.5 | 103 | 95.5 | 86.7 | 123 | 95.4 | 87.1 | 98.2 | 100 | 103 | 96.9 | 99.7 | residual activity (DYRK1A (human)): 102%; residual activity (EPHB2 (human)): 100%; residual activity (PRKG2 (human)): 106%; residual activity (MAP2K2 (human)): 117%; residual activity (MYLK2 (human)): 99%; residual activity (AURKA (human)): 84.1%; residual activity (FES (human)): 104%; residual activity (OXSR1 (human)): 98.2%; residual activity (DAPK1 (human)): 109%; residual activity (TGFBR1 (human)): 98.8%; residual activity (MAP3K11 (human)): 104%; residual activity (PRKCD (human)): 75.3%; residual activity (RPS6KA2 KD1 KD2 (human)): 89.7%; residual activity (CSNK1E (human)): 101%; residual activity (PIM2 (human)): 116%; residual activity (FLT1 (human)): 101%; residual activity (GSK3A (human)): 103%
CO[C@@H]1[C@H](N(C)C(=O)c2ccccc2)C[C@H]2O[C@]1(C)n1c3ccccc3c3c4c(c5c6ccccc6n2c5c31)C(=O)NC4 | 17.4 | 112 | 114 | 39.6 | 93.5 | 55.1 | 20.4 | 2.96 | 96.2 | 97.6 | 5.58 | 89.4 | 30.2 | 95.9 | 20.6 | 94.2 | 73.3 | 87.4 | 106 | 96.2 | residual activity (PDGFRB (human)): 14.8%; residual activity [1]: 16.3%; residual activity (AURKA (human)): 4.48%; residual activity (FES (human)): 48.3%; residual activity (JAK2 JH1 JH2 (human)): 8.94%; residual activity (OXSR1 (human)): 98.2%; residual activity (DAPK1 (human)): 84%; residual activity (CSNK1D (human)): 101%; residual activity (TGFBR1 (human)): 98.7%; residual activity (MAP3K11 (human)): 1.38%; residual activity (PRKCD (human)): 10.9%; residual activity (RPS6KA2 KD1 KD2 (human)): 3.06%; residual activity (FLT1 (human)): 37%
